US20220195386A1, “COMPOSITIONS AND METHODS FOR MAKING SENSORY NEURONS” (University of Georgia Research Foundation, Inc., priority 2020, published 2022)

B1: NT-3: Neurotrophin-3, binds to TRKC; used to promote differentiation of proprioceptors (protein, UniProt P20783 139-257, looked up)
Neurotrophin-3: YAEHKSHRGEYSVCDSESLWVTDKSSAIDIRGHQVTVLGEIKTGNSPVKQYFYETRCKEARPVKNGCRGIDDKHWNSQCKTSQTYVRALTSENNKLVGWRWIRIDTSCVCALSRKIGRT

How the values were obtained:
[1] = test system: SNs differentiated from NCCs replated on day 12; assay: SN subtype enrichment with growth factors, TRKA/TRKB/TRKC quantified by flow cytometry (FACS) on day 20; assay type: cell-based, human; conditions: NCCs replated day 12 in SN differentiation media containing GDNF and the indicated growth factor; FACS analysis on day 20; FIG. 7B
Excerpt: FIGS. 7A-7G illustrates strategies for SN subtype enrichment (related to FIGS. 3A-3F). FIG. 7A is a schematic of an initial approach. On day 12 of differentiation, NCCs were replated using SN differentiation media containing GDNF and the indicated growth factors and analyzed by flow cytometry. FIG. 7B is a bar graph showing quantification of SNs differentiated using enrichment media as indicated on 7A. SNs were stained with TRKA, TRKB and TRKC antibodies and quantified by flow cytometry. DAPI was used as viability dye. FIGS. 7C-7F are a series of scatter plots showing identification (7C) of subpopulation of noci- (7D), mechano- (7E), and proprioceptor (7F) enrichment by flow cytometry. Side scatter and forward scatter showing gated areas where each subtype is enriched and the percentages of each subpopulation are shown. FIG. 7G is a bar graph showing NGN2 and NGN1 waves are present during SN differentiation. RNA from SN-biased NCCs was obtained on each indicated day and NGN1 and NGN2 expression was measured by RT-qPCR. In all experiments N>4. Graphs show mean±S.D.
Cells were dissociated with Accutase for 20 min and then washed in Flow buffer: DMEM 2% FBS and 1 mM L-glutamine. Cells were centrifuged at 200 g for 4 min and resuspended in cold PBS, they were counted and diluted to a concentration of 1×10^6 cells/100 μL and incubated for 20 min (CD49d) or 1 h (TRKA, B and C) with conjugated antibody. Cells were then washed twice in Flow buffer, and incubated with DAPI (1:1,000) in 300 μL of Flow buffer for 5 mins. Cells were filtered and transferred to a 96-well plate. Samples were run using a Cytoflex S (Beckman). All subsequent analysis was done using FlowJo.
Contrary to previous reports (Alshawaf, et al., Scientific Reports 8, 603 (2018), Chambers, et al., Nat. Biotechnol. 30, 715-720 (2012), Schrenk-Siemens, et al., Nat. Neurosci. 18, 10-550 16 (2015)), the investigated protocol generates all three SN subtypes (FIG. 1H, 1I). Thus, methods to enrich distinct SN subtypes from bulk cultures were investigated. […]

hESC-derived SNs = assay: Multi-electrode array (MEA) recording of SN firing after incubation with nociceptor agonists; assay type: cell-based, human; conditions: titrated, incubated for 1 min before data acquisition; 5 min recordings; normalized to untreated control (basal); FIG. 2K
Method: Experiments were performed using a Maestro Pro (Axion Biosystems) MEA system. CytoView MEA 96 plates containing 8 embedded electrodes/well were coated with PO/LM/FN 448 and seeded with NCCs (day 6 or 12) or SNs (day 30). Repeated recordings were made every 5 days at 37° C. with a sampling frequency of 12.5 kHz for 5 min. Recordings from at least 6 wells were averaged per reading. Bursts were detected using Inter-Spike Interval (ISI). Capsaicin, WIN 55,212 and Pregnenolone were titrated and incubated for 1 min before data acquisition. Hypoosomotic media was obtained by mixing Sensory neuron media with sterile water in a 45:55 ratio, treatment was done for 1 min.

| Molecule | SN subtype enrichment (TRKA, TRKB, TRKC by FACS) [1] | firing rate of SNs (MEA) (hESC-derived SNs) |
| --- | --- | --- |
| NGF: Nerve growth factor, binds to TRKA; used to promote differentiation of nociceptors | no subtype enrichment |  |
| Cc1c(C(=O)c2cccc3ccccc23)c2cccc3c2n1[C@H](CN1CCOCC1)CO3 [WIN 55, 212-2] |  | increased firing rate |
| CC(=O)[C@H]1CC[C@H]2[C@@H]3CC=C4C[C@@H](O)CC[C@]4(C)[C@H]3CC[C@]12C [pregnenolone] |  | increased firing rate |
| BDNF: Brain-derived neurotrophic factor, binds to TRKB; used to promote differentiation of mechanoreceptors | no subtype enrichment |  |
| COc1cc(CNC(=O)CCCC/C=C/C(C)C)ccc1O [capsaicin] |  | increased firing rate |
| B1 | no subtype enrichment |  |
